In US7547690B2, “Compounds for the treatment of Hepatitis C” (Bristol-Myers Squibb Company, priority 2007, dated 2009):
Like-named read-outs stand apart in the source and are kept apart here.

What was measured:
HCV NS5B = target: T1, HCV NS5B (Hepatitis C virus genotype 1b, UniProt Q9WMX2); assay: HCV NS5B RdRp enzyme assay (standard / modified); type: biochemical; conditions: HCV RdRp genotype 1b, standard or modified assay not specified
T1 construct: The protein was expressed with an 18 amino acid C-terminal truncation to enhance the solubility; made in house; host or cells: E. coli BL21(DE3)
T1 sequence (Q9WMX2 2420-2992): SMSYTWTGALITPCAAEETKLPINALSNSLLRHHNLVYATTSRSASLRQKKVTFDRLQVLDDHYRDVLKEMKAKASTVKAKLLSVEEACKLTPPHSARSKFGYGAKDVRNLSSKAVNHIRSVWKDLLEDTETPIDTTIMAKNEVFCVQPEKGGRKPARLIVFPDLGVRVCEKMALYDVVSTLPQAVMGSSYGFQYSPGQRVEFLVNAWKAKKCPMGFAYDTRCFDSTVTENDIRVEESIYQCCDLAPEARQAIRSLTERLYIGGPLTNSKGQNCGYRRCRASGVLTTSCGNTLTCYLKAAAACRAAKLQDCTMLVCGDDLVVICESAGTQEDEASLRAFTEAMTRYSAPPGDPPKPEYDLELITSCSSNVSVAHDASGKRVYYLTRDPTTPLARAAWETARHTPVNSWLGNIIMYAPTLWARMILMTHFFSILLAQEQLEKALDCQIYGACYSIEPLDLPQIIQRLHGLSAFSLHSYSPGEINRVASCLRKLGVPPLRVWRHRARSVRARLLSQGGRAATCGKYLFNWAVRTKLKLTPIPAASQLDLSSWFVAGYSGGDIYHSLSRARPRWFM
Method: HCV NS5B RdRp cloning, expression, and purification. The cDNA encoding the NS5B protein of HCV, genotype 1b, was cloned into the pET21a expression vector. The protein was expressed with an 18 amino acid C-terminal truncation to enhance the solubility. The E. coli competent cell line BL21(DE3) was used for expression of the protein. Cultures were grown at 37° C. for ˜4 hours until the cultures reached an optical density of 2.0 at 600 nm. The cultures were cooled to 20° C. and induced with 1 mM IPTG. Fresh ampicillin was added to a final concentration of 50 μg/ml and the cells were grown overnight at 20° C.
Cell pellets (3 L) were lysed for purification to yield 15-24 mgs of purified NS5B. The lysis buffer consisted of 20 mM Tris-HCl, pH 7.4, 500 mM NaCl, 0.5% triton X-100, 1 mM DTT, 1 mM EDTA, 20% glycerol, 0.5 mg/ml lysozyme, 10 mM MgCl2, 15 ug/ml deoxyribonuclease I, and Complete TM protease inhibitor tablets (Roche). After addition of the lysis buffer, frozen cell pellets were resuspended using a tissue homogenizer. To reduce the viscosity of the sample, aliquots of the lysate were sonicated on ice using a microtip attached to a Branson sonicator. The sonicated lysate was centrifuged at 100,000×g for 1 hr at 4° C. and filtered through a 0.2 μm filter unit (Corning).
The protein was purified using two sequential chromatography steps: Heparin sepharose CL-6B and polyU sepharose 4B (Pharmacia). The chromatography buffers were identical to the lysis buffer but contained no lysozyme, deoxyribonuclease I, MgCl2 or protease inhibitor and the NaCl concentration of the buffer was adjusted according to the requirements for charging the protein onto the column. Each column was eluted with a NaCl gradient which varied in length from 5-50 column volumes depending on the column type. After the final chromatography step, the resulting purity of the enzyme is >90% based on SDS-PAGE analysis. The enzyme was aliquoted and stored at −80° C.
Standard HCV NS5B RdRp enzyme assay. HCV RdRp genotype 1b assays were run in a final volume of 60 μl in 96 well plates (Corning 3600). The assay buffer is composed of 20 mM Hepes, pH 7.5, 2.5 mM KCl, 2.5 mM MgCl2, 1 mM DTT, 1.6 U RNAse inhibitor (Promega N2515), 0.01 mg/ml BSA (Sigma B6917), and 2% glycerol. All compounds were serially diluted (3-fold) in DMSO and diluted further in water such that the final concentration of DMSO in the assay was 2%. HCV RdRp genotype 1b enzyme was used at a final concentration of 28 nM. A polyA template was used at 6 nM, and a biotinylated oligo-dT12 primer was used at 180 nM final concentration. Template was obtained commercially (Amersham 27-4110). Biotinylated primer was prepared by Sigma Genosys. 3H-UTP was used at 0.6 μCi (0.29 μM total UTP). Reactions were initiated by the addition of enzyme, incubated at 30 ° C. for 60 min, and stopped by adding 25 μl of 50 mM EDTA containing SPA beads (4 μg/μl, Amersham RPNQ 0007). Plates were read on a Packard Top Count NXT after >1 hr incubation at room temperature.
Modified HCV NS5B RdRp enzyme assay. A modified enzyme assay was performed essentially as described for the standard enzyme assay except for the following: The biotinylated oligo dT12 primer was precaptured on streptavidin-coated SPA beads by mixing primer and beads in assay buffer and incubating at room temperature for one hour. Unbound primer was removed after centrifugation. The primer-bound beads were resuspended in 20 mM Hepes buffer, pH 7.5 and used in the assay at final concentrations of 20 nM primer and 0.67 μg/μl beads. Order of addition in the assay: enzyme (1.75 nM) was added to diluted compound followed by the addition of a mixture of template (0.36 nM), 3H-UTP (0.6 μCi, 0.29 μM), and primer-bound beads, to initiate the reaction; concentrations given are final. Reactions were allowed to proceed for 4 hours at 30° C.
IC50 values for compounds were determined using seven different [I]. […]

HCV replicon cells = assay: HCV replicon FRET / luciferase assay; type: cell-based; conditions: 50% reduction in FRET or luciferase activity in HCV replicon cells
Method: FRET Assay Preparation. The HCV FRET screening assay was performed in 96-well cell culture plates. The FRET peptide (Anaspec, Inc.) (Taliani et al., Anal. Biochem. 1996, 240, 60-67) contains a fluorescence donor, EDANS, near one end of the peptide and an acceptor, DABCYL, near the other end. The fluorescence of the peptide is quenched by […] resonance energy transfer (RET) between the donor and the acceptor, but as the NS3 protease cleaves the peptide the products are released from RET quenching and the fluorescence of the donor becomes apparent. The assay reagent was made as follows: 5× cell Luciferase cell culture lysis reagent from Promega (#E153A) diluted to 1× with dH2O, NaCl added to 150 mM final, the FRET peptide diluted to 20 μM final from a 2 mM stock.
To prepare plates, HCV replicon cells, with or without a Renilla luciferase reporter gene, were trypsinized and plated in a 96-well plate with titrated test compounds added in columns 3 through 12; columns 1 and 2 contained a control compound (HCV control inhibitor), and the bottom row contained cells with DMSO only. The plates were then placed in a CO2 incubator at 37° C.
Assays. Subsequent to addition of the test compounds described above (FRET Assay Preparation), at various times the plate was removed and Alamar blue solution (Trek Diagnostics, #00-100) was added to measure cellular toxicity. After reading in a Cytoflour 4000 instrument (PE Biosystems), plates were rinsed with PBS and then used for FRET assay by the addition of 30 ul of the FRET peptide assay reagent described above (FRET Assay Preparation) per well. The plate was then placed into the Cytoflour 4000 instrument which had been set to 340 excite/490 emission, automatic mode for up to 20 cycles and the plate read in a kinetic mode. Typically, the signal to noise using an endpoint analysis after the reads was at least three-fold. Alternatively, after Alamar blue reading, plates were rinsed with PBS, then used for luciferase assay using the Promega Dual-Glo Luciferase Assay System or the Promega EnduRen Live Cell Substrate assay.
Compound analysis was performed by quantification of the relative HCV replicon inhibition and the relative cytotoxicity values. To calculate cytoxicity values, the average Alamar Blue fluorescence signals from the control wells were set as 100% non-toxic. The individual signals in each of the compound test wells were then divided by the average control signal and multiplied by 100% to determine […]. To calculate the HCV replicon inhibition values, an average background value was obtained from the two wells containing the highest amount of HCV control inhibitor at the end of the assay period. These numbers were similar to those obtained from naïve Huh-7 cells. The background numbers were then subtracted from the average signal obtained from the control wells and this number was used as 100% activity. The individual signals in each of the compound test wells were then divided by the averaged control values after background subtraction and multiplied by 100% to determine percent activity. EC50 values were calculated as the concentration which caused a 50% reduction in FRET or luciferase activity. The two numbers generated for the compound plate, percent cytoxicity and percent activity, were used to determine compounds of interest for further analysis.

[1] = Hepatitis C virus, read-out: EC50

## COc1ccc2c(c1)C1CC1(S(=O)(=O)N1C3CC1CN(C)C3)Cn1c-2c(C2CCCCC2)c2ccc(C(=O)NS(=O)(=O)N3CCOCC3)cc21 (stereo not drawn)
HCV NS5B; read-out: IC50
  IC50: 0.0024 to 0.5 µM
HCV replicon cells; [1]
  EC50: 0.0024 to 0.5 µM

## COc1ccc2c(c1)C1CC1(C(=O)N1C3CC1CN(C)C3)Cn1c-2c(C2CCCCC2)c2ccc(C(=O)NS(=O)(=O)N3CCN(C)CC3)cc21 (stereo not drawn)
HCV NS5B; read-out: IC50
  IC50: 0.0024 to 0.5 µM
HCV replicon cells; [1]
  EC50: 0.0024 to 0.5 µM

## COc1ccc2c(c1)C1CC1(C(=O)N1C3CC1CN(Cc1ccccc1)C3)Cn1c-2c(C2CCCCC2)c2ccc(C(=O)NS(=O)(=O)C3CC3)cc21 (stereo not drawn)
HCV NS5B; read-out: IC50
  IC50: 0.0024 to 0.5 µM
HCV replicon cells; [1]
  EC50: 0.0024 to 0.5 µM

## COc1ccc2c(c1)C1CC1(C(=O)N1C3CC1CN(C)C3)Cn1c-2c(C2CCCCC2)c2ccc(C(=O)NS(=O)(=O)CC(C)C)cc21 (stereo not drawn)
HCV NS5B; read-out: IC50
  IC50: 0.0024 to 0.5 µM
HCV replicon cells; [1]
  EC50: 0.0024 to 0.5 µM

## COc1ccc2c(c1)C1CC1(C(=O)N1[C@@H]3C[C@H]1CN(C)C3)Cn1c-2c(C2CCCCC2)c2ccc(C(=O)NS(=O)(=O)N3CCC3)cc21 (stereo partly drawn)
HCV NS5B; read-out: IC50
  IC50: 0.0024 to 0.5 µM
HCV replicon cells; [1]
  EC50: 0.0024 to 0.5 µM

## COc1ccc2c(c1)C1CC1(C(=O)N1CC3CCC1CN3)Cn1c-2c(C2CCCCC2)c2ccc(C(=O)NS(=O)(=O)C3CCCC3)cc21 (stereo not drawn)
HCV NS5B; read-out: IC50
  IC50: 0.0024 to 0.5 µM
HCV replicon cells; [1]
  EC50: > 1 µM

## COc1ccc2c(c1)C1CC1(C(=O)N1C3CC1CN(C)C3)Cn1c-2c(C2CCCCC2)c2ccc(C(=O)NS(=O)(=O)C3CCCC3)cc21 (stereo not drawn)
HCV NS5B; read-out: IC50
  IC50: 0.0024 to 0.5 µM
HCV replicon cells; [1]
  EC50: 0.0024 to 0.5 µM

## COc1ccc2c(c1)[C@@H]1C[C@]1(C(=O)N1C3CCC1C1CCC3N1C)Cn1c-2c(C2CCCCC2)c2ccc(C(=O)NS(=O)(=O)N(C)C)cc21 [drawing 161]
HCV NS5B
  IC50: 0.0024 to 0.5 µM
HCV replicon cells
  EC50: 0.0024 to 0.5 µM

## COc1ccc2c(c1)C1CC1(C(=O)N1C[C@@H]3C[C@H]1CN3C)Cn1c-2c(C2CCCCC2)c2ccc(C(=O)NS(=O)(=O)N(C)C)cc21 (stereo partly drawn)
HCV NS5B; read-out: IC50
  IC50: < 0.02 µM
HCV replicon cells; [1]
  EC50: 0.0024 to 0.5 µM

## COc1ccc2c(c1)C1CC1(C(=O)N1C3CC1CN(C)C3)Cn1c-2c(C2CCCCC2)c2ccc(C(=O)NS(=O)(=O)N3CCOCC3)cc21 (stereo not drawn)
HCV NS5B; read-out: IC50
  IC50: 0.0024 to 0.5 µM
HCV replicon cells; [1]
  EC50: 0.0024 to 0.5 µM

## COc1ccc2c(c1)C1CC1(C(=O)N1CCN3CCC1CC3)Cn1c-2c(C2CCCCC2)c2ccc(C(=O)NS(=O)(=O)C3CC3)cc21 (stereo not drawn) [drawing 50]
HCV NS5B; read-out: IC50
  IC50: 0.0024 to 0.5 µM
HCV replicon cells; [1]
  EC50: 0.0024 to 0.5 µM

## COc1ccc2c(c1)[C@@H]1C[C@]1(C(=O)N1[C@@H]3C[C@H]1CN(Cc1ccccc1)C3)Cn1c-2c(C2CCCCC2)c2ccc(C(=O)NS(=O)(=O)N(C)C)cc21
HCV NS5B; read-out: IC50
  IC50: 0.0024 to 0.5 µM
HCV replicon cells; [1]
  EC50: 0.0024 to 0.5 µM

## COc1ccc2c(c1)C1CC1(C(=O)N1C[C@@H]3C[C@H]1CN3CC(C)C)Cn1c-2c(C2CCCCC2)c2ccc(C(=O)NS(=O)(=O)C(C)C)cc21 (stereo partly drawn) [drawing 94]
HCV NS5B; read-out: IC50
  IC50: 0.0024 to 0.5 µM
HCV replicon cells; [1]
  EC50: 0.0024 to 0.5 µM

## COc1ccc2c(c1)C=C(C(=O)N1C3CCCC1CN(C)C3)Cn1c-2c(C2CCCCC2)c2ccc(C(=O)NS(=O)(=O)N(C)C)cc21
HCV NS5B; read-out: IC50
  IC50: 0.0024 to 0.5 µM
HCV replicon cells; [1]
  EC50: 0.0024 to 0.5 µM

## COc1ccc2c(c1)C1CC1(C(=O)N1CCN3CCC1CC3)Cn1c-2c(C2CCCCC2)c2ccc(C(=O)NS(=O)(=O)C(C)C)cc21 (stereo not drawn)
HCV NS5B; read-out: IC50
  IC50: 0.0024 to 0.5 µM
HCV replicon cells; [1]
  EC50: 0.0024 to 0.5 µM

## CCN1CC2CC(C1)N2C(=O)[C@]12C[C@H]1c1cc(OC)ccc1-c1c(C3CCCCC3)c3ccc(C(=O)NS(=O)(=O)N(C)C)cc3n1C2
HCV NS5B; read-out: IC50
  IC50: 0.0024 to 0.5 µM
HCV replicon cells; [1]
  EC50: 0.0024 to 0.5 µM

## COc1ccc2c(c1)[C@@H]1C[C@]1(C(=O)N1CCC3CCC(C1)N3C)Cn1c-2c(C2CCCCC2)c2ccc(C(=O)NS(=O)(=O)N(C)C)cc21 (stereo partly drawn)
HCV NS5B; read-out: IC50
  IC50: 0.0024 to 0.5 µM
HCV replicon cells; [1]
  EC50: 0.0024 to 0.5 µM

## COc1ccc2c(c1)[C@@H]1C[C@]1(C(=O)N1[C@@H]3C[C@H]1CN(C)C3)Cn1c-2c(C2CCCCC2)c2ccc(C(=O)NS(=O)(=O)N(C)C)cc21
HCV NS5B; read-out: IC50
  IC50: 0.0024 to 0.5 µM
HCV replicon cells; [1]
  EC50: 0.0024 to 0.5 µM
